Like-named read-outs stand apart in the source and are kept apart here.
What was measured:
[1] = system: PC3 prostate carcinoma cells; assay: Cytotoxicity, sulphorodamine B test (PC3); format: cell-based, human
Protocol: (§1) To evaluate the effect of the compound on survival cells, the sulphorodamine B test was used. To measure the effects of the compounds on cell growth, PC3 human prostate carcinoma and A2780 human ovarian carcinoma cells were used. A2780 and PC3 tumour cells were grown RPMI 1640 containing 10% fetal bovine serum (GIBCO).
(§2) Tumour cells were seeded in 96-well tissue culture plates at approximately 10% confluence and were allowed to attach and recover for at least 24 h. Varying concentrations of the drugs were then added to each well to calculate their IC50 value (the concentration which inhibits the 50% of cell survival). The plates were incubated at 37° C. for 72 h. At the end of the treatment, the plates were washed by removal of the supernatant and addition of PBS 3 times. 200 μl PBS and 50 μl of cold 80% trichloroacetic acid (TCA) were added. The plates were incubated on ice for at least 1 h. TCA was removed and the plates were washed 3 times by immersion in distilled-water and dried on paper and at 40° C. for 5 min. Then 200 μl of 0.4% sulphorodamine B in 1% acetic acid were added. The plates were incubated at RT for further 30 min. Sulphorodamine B was removed, the plates were washed by immersion in 1% acetic acid 3 times, then they were dried on paper and at 40° C. for 5 min. Then 200 μl Tris 10 mM were added, the plates were kept under stirring for 20 min. The cell survival was determined by means of optical density using a Multiskan spectrofluorimeter at 540 nm. The amount of cells killed was calculated as the percentage decrease in sulphorodamine B binding compared with control cultures.
(§3) The IC50 values were calculated with the “ALLFIT” program.

αvβ3 receptor = αvβ3 receptor (Homo sapiens, UniProt P05106+P06756); assay: Solid-phase binding assay, inhibition of [125I]Echistatin binding to αvβ3 receptor
αvβ3 receptor, sequence (P06756 31-889 limits assumed): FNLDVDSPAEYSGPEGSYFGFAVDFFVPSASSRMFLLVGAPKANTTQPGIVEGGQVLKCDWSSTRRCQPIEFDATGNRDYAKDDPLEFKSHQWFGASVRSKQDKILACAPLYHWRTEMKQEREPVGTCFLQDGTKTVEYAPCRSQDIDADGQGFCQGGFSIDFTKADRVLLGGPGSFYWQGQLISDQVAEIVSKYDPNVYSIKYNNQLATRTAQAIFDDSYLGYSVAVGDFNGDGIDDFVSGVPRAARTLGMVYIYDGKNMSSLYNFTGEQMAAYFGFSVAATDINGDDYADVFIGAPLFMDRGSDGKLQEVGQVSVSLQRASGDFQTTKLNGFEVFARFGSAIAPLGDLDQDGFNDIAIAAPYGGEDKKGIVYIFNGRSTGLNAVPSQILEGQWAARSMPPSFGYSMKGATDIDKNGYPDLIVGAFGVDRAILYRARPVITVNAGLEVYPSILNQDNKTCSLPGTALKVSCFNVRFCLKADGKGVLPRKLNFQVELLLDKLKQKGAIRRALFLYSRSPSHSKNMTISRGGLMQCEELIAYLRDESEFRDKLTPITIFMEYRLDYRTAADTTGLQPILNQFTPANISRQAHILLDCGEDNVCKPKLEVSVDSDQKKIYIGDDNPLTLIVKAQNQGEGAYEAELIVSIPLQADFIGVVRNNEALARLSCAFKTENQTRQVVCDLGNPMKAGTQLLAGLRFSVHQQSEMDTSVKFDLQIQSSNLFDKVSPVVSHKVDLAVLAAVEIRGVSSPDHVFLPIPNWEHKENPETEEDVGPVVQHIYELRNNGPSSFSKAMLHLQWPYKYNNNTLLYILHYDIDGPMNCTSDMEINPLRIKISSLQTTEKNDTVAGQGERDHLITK
αvβ3 receptor, sequence (P06756 891-1048 partner limits assumed): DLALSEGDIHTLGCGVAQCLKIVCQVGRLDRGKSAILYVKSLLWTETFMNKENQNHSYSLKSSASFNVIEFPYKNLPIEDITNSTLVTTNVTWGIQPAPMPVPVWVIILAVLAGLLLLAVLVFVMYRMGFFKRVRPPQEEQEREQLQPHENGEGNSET
αvβ3 receptor, sequence (P05106 27-788): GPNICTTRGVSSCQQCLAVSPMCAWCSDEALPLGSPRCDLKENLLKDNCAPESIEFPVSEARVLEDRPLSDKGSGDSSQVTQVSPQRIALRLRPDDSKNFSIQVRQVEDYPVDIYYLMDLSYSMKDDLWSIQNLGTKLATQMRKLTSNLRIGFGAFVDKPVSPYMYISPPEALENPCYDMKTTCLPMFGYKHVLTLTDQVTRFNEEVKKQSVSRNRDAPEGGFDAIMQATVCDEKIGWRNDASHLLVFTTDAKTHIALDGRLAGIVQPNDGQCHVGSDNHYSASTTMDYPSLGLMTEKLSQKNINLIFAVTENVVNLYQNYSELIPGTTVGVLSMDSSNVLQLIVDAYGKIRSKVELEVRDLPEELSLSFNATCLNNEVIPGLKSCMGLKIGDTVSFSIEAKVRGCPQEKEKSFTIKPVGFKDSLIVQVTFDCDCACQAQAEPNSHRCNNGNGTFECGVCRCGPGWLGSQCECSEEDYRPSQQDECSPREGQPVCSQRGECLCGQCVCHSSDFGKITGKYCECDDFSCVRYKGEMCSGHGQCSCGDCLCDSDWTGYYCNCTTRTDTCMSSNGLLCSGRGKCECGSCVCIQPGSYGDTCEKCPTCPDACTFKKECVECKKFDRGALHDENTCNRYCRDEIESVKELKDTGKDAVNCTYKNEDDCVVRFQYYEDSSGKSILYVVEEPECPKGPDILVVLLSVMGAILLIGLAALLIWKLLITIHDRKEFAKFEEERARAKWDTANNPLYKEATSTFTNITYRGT
Protocol: (§4) The receptor binding assays were performed as described (Orlando R. A., et al., J. Biol. Chem. 1991, 266, 19543). αvβ3 and αvβ5 were diluted to 500 ng/ml and 1 μg/ml, respectively, in coating buffer (20 mM Tris, pH 7.4, 150 mM NaCl, 2 mM CaCl2, 1 mM MgCl2, 1 mM MnCl2) and an aliquot of 100 μL was added to a 96-well microtiter plate and incubated overnight at 4° C. The plate was washed once with blocking/binding buffer (50 mM Tris, pH 7.4, 100 mM NaCl, 2 mM CaCl2, 1 mM MgCl2, 1 mM MnCl2, 1% bovine serum albumin), and then was incubated for additional 2 h at RT The plate was rinsed twice with the same buffer and incubated for 3 h at RT with radiolabeled ligand [^125I]Echistatin (Amersham Pharmacia Biotech) 0.05 nM (0.1 nM for αv β5) in the presence of competing inhibitors. After the incubation, the wells were washed and radioactivity was determined with a gamma-counter (Packard). Non-specific binding of ligand was determined with molar excess (200 nM) of cold echistatin.
(§5) The IC50 values reported in Tables 1 and 2 were calculated as the concentrations of compounds required for 50% inhibition of echistatin binding and were estimated by the Prism GraphPad program. The Ki of the competing ligands were calculated according to the Cheng-Prusoff equation (Cheng Y. C., et al., Biochem. Pharmacol., 1973, 22, 3099). Values are the mean±log standard error of triplicate determinations from two independent experiments.

[2] = system: A2780 ovarian carcinoma cells; assay: Cytotoxicity, sulphorodamine B test (A2780); format: cell-based, human
Protocol: as §1, §2, §3

αvβ5 receptors = αvβ5 receptors (Homo sapiens, UniProt P06756+P18084); assay: Solid-phase binding assay, inhibition of [125I]Echistatin binding to αvβ5 receptors
αvβ5 receptors, sequence (P06756 31-889 limits assumed): as the sequence (P06756 31-889 limits assumed) above
αvβ5 receptors, sequence (P06756 891-1048 partner limits assumed): as the sequence (P06756 891-1048 partner limits assumed) above
αvβ5 receptors, sequence (P18084 24-799): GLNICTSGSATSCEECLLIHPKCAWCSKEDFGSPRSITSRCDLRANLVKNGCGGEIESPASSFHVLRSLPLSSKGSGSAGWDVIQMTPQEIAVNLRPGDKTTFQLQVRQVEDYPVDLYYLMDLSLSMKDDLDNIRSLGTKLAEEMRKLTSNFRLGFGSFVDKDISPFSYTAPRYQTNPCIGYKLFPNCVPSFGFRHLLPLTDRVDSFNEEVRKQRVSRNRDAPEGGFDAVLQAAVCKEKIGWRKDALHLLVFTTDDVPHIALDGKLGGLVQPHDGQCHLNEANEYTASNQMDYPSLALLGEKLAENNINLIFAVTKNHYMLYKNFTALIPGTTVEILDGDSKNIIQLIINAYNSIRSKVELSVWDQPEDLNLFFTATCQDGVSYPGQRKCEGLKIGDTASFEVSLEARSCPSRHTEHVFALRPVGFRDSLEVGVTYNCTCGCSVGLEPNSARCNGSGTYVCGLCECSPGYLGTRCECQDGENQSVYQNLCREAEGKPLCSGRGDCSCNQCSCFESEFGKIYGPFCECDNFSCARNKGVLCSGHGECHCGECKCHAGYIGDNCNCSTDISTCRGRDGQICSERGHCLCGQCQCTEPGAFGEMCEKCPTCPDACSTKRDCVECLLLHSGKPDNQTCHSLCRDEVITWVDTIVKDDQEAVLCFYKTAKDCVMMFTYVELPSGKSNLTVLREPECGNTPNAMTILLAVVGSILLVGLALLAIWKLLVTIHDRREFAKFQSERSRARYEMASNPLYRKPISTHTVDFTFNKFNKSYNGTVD
Protocol: as §4, §5

[3] = system: A2780 ovarian carcinoma cells; format: cell-based, human
Protocol: (§6) A2780 human ovarian carcinoma and PC3 prostate carcinoma cells were grown in medium culture RPMI 1640 containing 10% fetal bovine serum and 50 μg/ml gentamycin sulfate. Cells were maintained in a 37° C. incubator with saturated humidity and an atmosphere of 95% air and 5% CO2. A2780 tumour cell line expresses high levels of αvβ5 integrin, and PC3 low levels of both integrins.
(§7) In 96-well tissue culture plates, 50 μl/well of a solution of vitronectin (5 μg/ml) were added for 2 h at room temperature. The solutions were removed upsetting the plates. 50 μl/well of a solution 1% BSA were added for 1 h at RT. The plates were washed by addition of 100 μl/well of medium culture RPMI 1640 without fetal calf serum (FCS). The washing was repeated twice. The molecules were added at different concentrations in the range between 0.039 μM and 20 μM. The solutions were prepared by dilution 1:2 in medium culture without FCS. Tumour cells in the flasks were washed in saline solution before to be detached by scraper, by the addition of 5 ml of medium culture without FCS and 1% BSA. Tumour cells were counted after resuspension and added at an appropriate cellular density (40000-50000 cells/well). The plates were incubated for 1 h at 37° C. in humidified incubator with 5% CO2. Then, the solutions were removed upsetting the plates and washed once with 200 μl/well of PBS with Ca^2+ e Mg^2+. Tumour cells were fixed with 100 μl of a solution 4% paraformaldehyde in 0.2 M Sorensen phosphate buffer pH 7.2-7.4 for 10 min at RT The plates were upset and 100 μl of 1% Toluidine Blu solution were added for 10 min at RT The plates were washed twice by immersion in bi-distilled water and then dried at 60° C. in thermostat incubator (Kottermann). 100 μl/well of 1% SDS were added. The plates were kept under stirring for 20 min at RT and were then evaluated by Victor 1420 multilabel counter (Wallac) at 600 nm.
(§8) The IC50 value as parameter to measure the inhibiting effect of the molecules on tumour cell adhesion to vitronectin was evaluated using “ALLFIT” computer program.

[4] = system: PC3 prostate carcinoma cells; format: cell-based, human
Protocol: as §6, §7, §8

[5] = Stability of the linker-containing conjugate in various assays; conditions: various assays conducted
From the text: A number of linker-containing peptides as substrates of Cathepsin B have already been described, for example, Phe-Lys, Val-Cit (Dubowchick G. M., et al, Bioconjugate Chem., 2002, 13, 4, 855); Gly-Phe-Leu-Gly (Rejmanova P., et al, Biomaterials, 1985, 6, 1, 45); D-Ala-Phe-Lys (de Groot F. M. H., et al., Mol. Cancer. Ther., 2002, 1, 901). Some of these peptides have been successfully applied when attached to antibodies, which, due to their bulkiness, can shield them from plasma peptidases. However, when we experimented these peptide sequences applied to conjugates containing small ligands, as in the case of oligopeptides, they were immediately cleaved releasing the cytotoxic agent into the circulation, contrary to what described by other authors. […] The above cited paper from Dubowchick deals with cathepsin B-labile dipeptide ligands. The same authors also published four years before another study about the influence of the amino acid at position P2 when Cit amino acid was at P1 position, concluding that the best amino acid in such a position was Val because of hydrophobic interactions within the binding site of cathepsin B (Dubowchick G. M., et al, Bioorg. Med. Chem., 1998, 8, 3341), meanwhile the analogue containing Ala instead of Val contributed to slower noticeably the release of doxorubicin, which was clearly contrary to the objective of the study.

[6] = PC3, 72 h of treatment, read-out: IC50 ± SD, cytotoxicity
[7] = A2780, 72 h of treatment, read-out: IC50 ± SD, cytotoxicity
[8] = A2780, 1 h of treatment, read-out: IC50 ± SD, antiadhesive effect to vitronectin
[9] = PC3, 1 h of treatment, read-out: IC50 ± SD, antiadhesive effect to vitronectin
[10] = αvβ3, Cheng-Prusoff equation, read-out: Ki
[11] = αvβ3, [125I]Echistatin 0.05 nM, read-out: IC50 ± log SE, inhibition of [125I]Echistatin binding (converted)
[12] = αvβ5, Cheng-Prusoff equation, read-out: Ki
[13] = αvβ5, [125I]Echistatin 0.1 nM, read-out: IC50 ± log SE, inhibition of [125I]Echistatin binding (converted)

Compound	IC50 [1, 6]	IC50 (αvβ3 receptor)	Ki (αvβ3 receptor)	IC50 [2, 7]	IC50 (αvβ5 receptors)	Ki (αvβ5 receptors)	IC50 [3, 8]	IC50 [4, 9]	IC50 ([1]; human)	Ki (αvβ3 receptor; [10])	IC50 (αvβ3 receptor; [11])	IC50 ([2]; human)	Ki (αvβ5 receptors; [12])	IC50 (αvβ5 receptors; [13])	IC50 ([3]; 1 h)	IC50 ([4]; 1 h)	stability [5]
CC[C@@]1(O)C(=O)OCc2c1cc1n(c2=O)Cc2c-1nc1ccccc1c2C=NOCCNC(=O)OCc1ccc(NC(=O)[C@H](CCCNC(N)=O)NC(=O)[C@H](C)NC(=O)c2cn(CCOCCOCCOCCC(=O)NCc3ccc(C[C@@H]4NC(=O)[C@@H](Cc5ccccc5)NC(=O)[C@H](CC(=O)O)NC(=O)CNC(=O)[C@H](CCCNC(=N)N)NC4=O)cc3)nn2)cc1 [ST4167]	1000 ± 100 nM	11 ± 0.8 nM	8.7 nM	30 ± 3 nM	18.4 ± 0.89 nM	13.8 nM	670 ± 20 nM	560 ± 70 nM									
CC[C@@]1(O)C(=O)OCc2c1cc1n(c2=O)Cc2c-1nc1ccccc1c2C=NOCCNC(=O)OCc1ccc(NC(=O)[C@H](CCCNC(N)=O)NC(=O)[C@H](C)NC(=O)COCCOCCOCC(=O)NCc2cn(CC(=O)N[C@@H](CCC(=O)NCCOCCOCCOCCC(=O)NCc3ccc(C[C@@H]4NC(=O)[C@@H](Cc5ccc(O)cc5)NC(=O)[C@H](CC(=O)O)NC(=O)CNC(=O)[C@H](CCCNC(=N)N)NC4=O)cc3)C(=O)NCCOCCOCCOCCC(=O)NCc3ccc(C[C@@H]4NC(=O)[C@@H](Cc5ccc(O)cc5)NC(=O)[C@H](CC(=O)O)NC(=O)CNC(=O)[C@H](CCCNC(=N)N)NC4=O)cc3)nn2)cc1 [ST5744TF1]									1000 ± 20 nM	2.4 nM	3.01 ± 0.11 nM	8 ± 0.5 nM	2.95 nM	3.84 ± 0.12 nM	450 ± 20 nM	390 ± 90 nM	
Echistatin [reference compound]										0.26 nM	0.28 ± 0.08 nM		0.33 nM	0.29 ± 0.02 nM			
CC[C@@]1(O)C(=O)OCc2c1cc1n(c2=O)Cc2c-1nc1ccccc1c2C=NOCCNC(=O)OCc1ccc(NC(=O)[C@H](CCCNC(N)=O)NC(=O)[C@H](C)NC(=O)c2cn(CCOCCOCCOCCC(=O)N[C@@H](CCCNC(N)=O)C(=O)NCCOCCOCCOCCC(=O)NCc3ccc(C[C@@H]4NC(=O)[C@@H](Cc5ccccc5)NC(=O)[C@H](CC(=O)O)NC(=O)CNC(=O)[C@H](CCCNC(=N)N)NC4=O)cc3)nn2)cc1 [ST4215]	2500 ± 700 nM			9 ± 0.7 nM			1700 ± 200 nM	4600 ± 800 nM									
CC[C@@]1(O)C(=O)OCc2c1cc1n(c2=O)Cc2c-1nc1ccccc1c2C=NOCCNC(=O)OCc1ccc(NC(=O)[C@H](CCCCN)NC(=O)[C@H](Cc2ccccc2)NC(=O)COCCOCCOCC(=O)NCc2ccc(C[C@@H]3NC(=O)[C@@H](Cc4ccccc4)NC(=O)[C@H](CC(=O)O)NC(=O)CNC(=O)[C@H](CCCNC(=N)N)NC3=O)cc2)cc1 [ST3280]	200 ± 30 nM	9.7 ± 0.06 nM	8.5 nM	8.4 ± 0.6 nM	34.4 ± 0.8 nM	23 nM	2700 ± 300 nM	1800 ± 400 nM									highly unstable
